Legend:
Assay in all cases: cells
Type in all cases: functional, cell-based, Homo sapiens
COLO-829 = conditions: Homo sapiens, COLO-829
Description: SANGER: Inhibition of human COLO-829 cell growth in a cell viability assay.

HT = conditions: Homo sapiens, HT
Description: SANGER: Inhibition of human HT cell growth in a cell viability assay.

DOHH-2 = conditions: Homo sapiens, DOHH-2;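 also: growth inhibition of human DOHH-2 cells, read out with a cell viability assay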
Description: SANGER: Inhibition of human DOHH-2 cell growth in a cell viability assay.

SBC-1 = conditions: Homo sapiens, SBC-1;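 also: cell viability assay measuring growth inhibition of the SBC-1 cell line, IC50 being the concentration that halves growth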
Description: SANGER: Inhibition of human SBC-1 cell growth in a cell viability assay.

JVM-2 = conditions: Homo sapiens, JVM-2;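 also: growth inhibition of JVM-2 cells determined by a cell viability assay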
Description: SANGER: Inhibition of human JVM-2 cell growth in a cell viability assay.

NH-12 = conditions: Homo sapiens, NH-12;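 also: growth inhibition of NH-12 cells, read out with a cell viability assay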
Description: SANGER: Inhibition of human NH-12 cell growth in a cell viability assay.

NMC-G1 = conditions: Homo sapiens, NMC-G1;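 also: growth inhibition of the NMC-G1 cell line, measured with a cell viability read-out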
Description: SANGER: Inhibition of human NMC-G1 cell growth in a cell viability assay.

NCI-H69 = conditions: Homo sapiens, NCI-H69;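 also: growth inhibition of the cell line, read out with a cell viability assay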
Description: SANGER: Inhibition of human NCI-H69 cell growth in a cell viability assay.

CTB-1 = conditions: Homo sapiens, CTB-1
Description: SANGER: Inhibition of human CTB-1 cell growth in a cell viability assay.

GAK = conditions: Homo sapiens, GAK;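 also: cell growth inhibition read out by a cell viability assay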
Description: SANGER: Inhibition of human GAK cell growth in a cell viability assay.

HL-60 = conditions: Homo sapiens, HL-60;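 also: growth inhibition of human HL-60 cells, read out with a cell viability assay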
Description: SANGER: Inhibition of human HL-60 cell growth in a cell viability assay.

L-363 = conditions: Homo sapiens, L-363
Description: SANGER: Inhibition of human L-363 cell growth in a cell viability assay.

NCI-H1092 = conditions: Homo sapiens, NCI-H1092;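 also: cell growth inhibition measured with a cell viability assay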
Description: SANGER: Inhibition of human NCI-H1092 cell growth in a cell viability assay.

no-11 = conditions: Homo sapiens;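 also: growth inhibition of human NO-11 cells, read out with a cell viability assay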
Description: SANGER: Inhibition of human no-11 cell growth in a cell viability assay.

TK-10 = conditions: Homo sapiens, TK-10;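 also: growth inhibition of TK-10 cells, read out in a cell viability assay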
Description: SANGER: Inhibition of human TK10 cell growth in a cell viability assay.

MMAC-SF = conditions: Homo sapiens, MMAC-SF;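 also: growth inhibition of human MMAC-SF cells, read out with a cell viability assay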
Description: SANGER: Inhibition of human MMAC-SF cell growth in a cell viability assay.

SK-MEL-1 = conditions: Homo sapiens, SK-MEL-1;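 also: growth inhibition of human SK-MEL-1 cells, read out by a cell viability assay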
Description: SANGER: Inhibition of human SK-MEL-1 cell growth in a cell viability assay.

HCC2157 = conditions: Homo sapiens, HCC2157;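 also: growth inhibition of the cancer cell line, read out as cell viability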
Description: SANGER: Inhibition of human HCC2157 cell growth in a cell viability assay.

TE-9 = conditions: Homo sapiens, TE-9;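 also: cell growth inhibition, measured with a cell viability readout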
Description: SANGER: Inhibition of human TE-9 cell growth in a cell viability assay.

NCI-H1581 = conditions: Homo sapiens, NCI-H1581;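 also: cell growth inhibition read out by a viability assay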
Description: SANGER: Inhibition of human NCI-H1581 cell growth in a cell viability assay.

LB1047-RCC = conditions: Homo sapiens, LB1047-RCC;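 also: inhibition of cell growth, determined with a cell viability assay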
Description: SANGER: Inhibition of human LB1047-RCC cell growth in a cell viability assay.

MZ1-PC = conditions: Homo sapiens, MZ1-PC;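 also: cell viability assay measuring growth inhibition of human MZ1-PC cells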
Description: SANGER: Inhibition of human MZ1-PC cell growth in a cell viability assay.

SW684 = conditions: Homo sapiens, SW684;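 also: growth inhibition of human SW684 cells, measured by a cell viability assay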
Description: SANGER: Inhibition of human SW684 cell growth in a cell viability assay.

BV-173 = conditions: Homo sapiens, BV-173
Description: SANGER: Inhibition of human BV-173 cell growth in a cell viability assay.

ES4 = conditions: Homo sapiens, ES4;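 also: growth inhibition of human ES4 cells, read out by a cell viability assay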
Description: SANGER: Inhibition of human ES4 cell growth in a cell viability assay.

NCI-H1299 = conditions: Homo sapiens, NCI-H1299;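 also: growth inhibition of human NCI-H1299 cells, read out by a cell viability assay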
Description: SANGER: Inhibition of human NCI-H1299 cell growth in a cell viability assay.

KLE = conditions: Homo sapiens, KLE;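 also: growth inhibition of human KLE cells, read out with a cell viability assay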
Description: SANGER: Inhibition of human KLE cell growth in a cell viability assay.

COLO-800 = conditions: Homo sapiens, COLO-800;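 also: growth inhibition of COLO-800 cells, read out with a cell viability assay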
Description: SANGER: Inhibition of human COLO-800 cell growth in a cell viability assay.

UACC-257 = conditions: Homo sapiens, UACC-257
Description: SANGER: Inhibition of human UACC-257 cell growth in a cell viability assay.

LS-123 = conditions: Homo sapiens, LS-123
Description: SANGER: Inhibition of human LS-123 cell growth in a cell viability assay.

C8166 = conditions: Homo sapiens, C8166;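 also: growth inhibition of human C8166 cells measured by a cell viability assay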
Description: SANGER: Inhibition of human C8166 cell growth in a cell viability assay.

ETK-1 = conditions: Homo sapiens, ETK-1;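 also: growth inhibition of human ETK-1 cells, read out with a cell viability assay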
Description: SANGER: Inhibition of human ETK-1 cell growth in a cell viability assay.

NCI-H1155 = conditions: Homo sapiens, NCI-H1155;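 also: cell growth inhibition measured by a viability assay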
Description: SANGER: Inhibition of human NCI-H1155 cell growth in a cell viability assay.

VA-ES-BJ = conditions: Homo sapiens, VA-ES-BJ;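 also: growth inhibition of the VA-ES-BJ cell line, read out by a cell viability assay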
Description: SANGER: Inhibition of human VA-ES-BJ cell growth in a cell viability assay.

LB996-RCC = conditions: Homo sapiens, LB996-RCC
Description: SANGER: Inhibition of human LB996-RCC cell growth in a cell viability assay.

SF-268 = conditions: Homo sapiens, SF-268;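 also: growth inhibition of SF-268 cells determined with a cell viability assay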
Description: SANGER: Inhibition of human SF268 cell growth in a cell viability assay.

ES1 = conditions: Homo sapiens, ES1;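 also: growth inhibition of ES1 cells, read out with a cell viability assay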
Description: SANGER: Inhibition of human ES1 cell growth in a cell viability assay.

TE-5 = conditions: Homo sapiens, TE-5;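 also: inhibition of cell growth, read out by a cell viability assay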
Description: SANGER: Inhibition of human TE-5 cell growth in a cell viability assay.

RXF 393 = conditions: Homo sapiens, RXF 393;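 also: growth inhibition of human RXF 393 cells, read out with a cell viability assay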
Description: SANGER: Inhibition of human RXF393 cell growth in a cell viability assay.

NB6 = conditions: Homo sapiens, NB6;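 also: growth inhibition of NB6 cells, read out by a cell viability assay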
Description: SANGER: Inhibition of human NB6 cell growth in a cell viability assay.

COLO-320-HSR = conditions: Homo sapiens, COLO-320-HSR;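 also: growth inhibition of COLO-320-HSR cells, determined with a cell viability assay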
Description: SANGER: Inhibition of human COLO-320-HSR cell growth in a cell viability assay.

MN-60 = conditions: Homo sapiens, MN-60;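 also: growth inhibition of the MN-60 cell line, determined with a cell viability assay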
Description: SANGER: Inhibition of human MN-60 cell growth in a cell viability assay.

EC-GI-10 = conditions: Homo sapiens, EC-GI-10
Description: SANGER: Inhibition of human EC-GI-10 cell growth in a cell viability assay.

NB5 = conditions: Homo sapiens, NB5;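 also: growth inhibition of NB5 cells, read out as cell viability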
Description: SANGER: Inhibition of human NB5 cell growth in a cell viability assay.

RPMI-8866 = conditions: Homo sapiens, RPMI-8866
Description: SANGER: Inhibition of human RPMI-8866 cell growth in a cell viability assay.

NB12 = conditions: Homo sapiens, NB12;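 also: growth inhibition of human NB12 cells, read out by a cell viability assay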
Description: SANGER: Inhibition of human NB12 cell growth in a cell viability assay.

TE-10 = conditions: Homo sapiens, TE-10;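 also: growth inhibition of TE-10 cells, measured by a cell viability assay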
Description: SANGER: Inhibition of human TE-10 cell growth in a cell viability assay.

NCI-H209 = conditions: Homo sapiens, NCI-H209;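 also: growth inhibition of human NCI-H209 cells, measured by a cell viability assay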
Description: SANGER: Inhibition of human NCI-H209 cell growth in a cell viability assay.

Nc1ccn([C@@H]2O[C@H](CO)[C@@H](O)C2(F)F)c(=O)n1 [GEMCITABINE]
IC50 (COLO-829): > 1020 nM
IC50 (HT): > 1020 nM
IC50 (DOHH-2): 196 nM
IC50 (SBC-1): 166 nM
IC50 (JVM-2): > 1020 nM
IC50 (NH-12): 25.5 nM
IC50 (NMC-G1): 8.76 nM
IC50 (NCI-H69): 459 nM
IC50 (CTB-1): 53.4 nM
IC50 (GAK): 373 nM
IC50 (HL-60): 15.7 nM
IC50 (L-363): 95.5 nM
IC50 (NCI-H1092): > 1020 nM
IC50 (no-11): 737 nM
IC50 (TK-10): 14.5 nM
IC50 (MMAC-SF): > 1020 nM
IC50 (SK-MEL-1): > 1020 nM
IC50 (HCC2157): > 1020 nM
IC50 (TE-9): 190 nM
IC50 (NCI-H1581): > 1020 nM
IC50 (LB1047-RCC): < 4 nM
IC50 (MZ1-PC): 254 nM
IC50 (SW684): > 1020 nM
IC50 (BV-173): 17.3 nM
IC50 (ES4): < 4 nM
IC50 (NCI-H1299): < 4 nM
IC50 (KLE): 459 nM
IC50 (COLO-800): 40.6 nM
IC50 (UACC-257): 364 nM
IC50 (LS-123): 40.3 nM
IC50 (C8166): 13.1 nM
IC50 (ETK-1): 8.08 nM
IC50 (NCI-H1155): 488 nM
IC50 (VA-ES-BJ): 5.26 nM
IC50 (LB996-RCC): 65.1 nM
IC50 (SF-268): < 4 nM
IC50 (ES1): < 4 nM
IC50 (TE-5): < 4 nM
IC50 (RXF 393): > 1020 nM
IC50 (NB6): > 1020 nM
IC50 (COLO-320-HSR): 224 nM
IC50 (MN-60): > 1020 nM
IC50 (EC-GI-10): > 1020 nM
IC50 (NB5): > 1020 nM
IC50 (RPMI-8866): 95.2 nM
IC50 (NB12): 155 nM
IC50 (TE-10): 16.2 nM
IC50 (NCI-H209): 52.1 nM

O=C(O)c1ccc(-c2c[nH]c3ncc(-c4ccccc4)cc23)cc1C1CCCC1 [GSK-650394]
IC50 (COLO-829): > 16000 nM
IC50 (HT): > 16000 nM
IC50 (DOHH-2): > 16000 nM
IC50 (SBC-1): > 16000 nM
IC50 (JVM-2): > 16000 nM
IC50 (NH-12): 12300 nM
IC50 (NMC-G1): > 16000 nM
IC50 (NCI-H69): 7670 nM
IC50 (CTB-1): > 16000 nM
IC50 (GAK): > 16000 nM
IC50 (HL-60): > 16000 nM
IC50 (L-363): > 16000 nM
IC50 (NCI-H1092): > 16000 nM
IC50 (no-11): > 16000 nM
IC50 (TK-10): > 16000 nM
IC50 (MMAC-SF): > 16000 nM
IC50 (SK-MEL-1): > 16000 nM
IC50 (HCC2157): 13500 nM
IC50 (TE-9): > 16000 nM
IC50 (NCI-H1581): > 16000 nM
IC50 (LB1047-RCC): 6200 nM
IC50 (MZ1-PC): > 16000 nM
IC50 (SW684): > 16000 nM
IC50 (BV-173): > 16000 nM
IC50 (ES4): 4060 nM
IC50 (NCI-H1299): 5990 nM
IC50 (KLE): > 16000 nM
IC50 (COLO-800): > 16000 nM
IC50 (UACC-257): > 16000 nM
IC50 (LS-123): > 16000 nM
IC50 (C8166): > 16000 nM
IC50 (ETK-1): 10100 nM
IC50 (NCI-H1155): > 16000 nM
IC50 (VA-ES-BJ): 9040 nM
IC50 (LB996-RCC): > 16000 nM
IC50 (SF-268): > 16000 nM
IC50 (ES1): > 16000 nM
IC50 (TE-5): > 16000 nM
IC50 (RXF 393): > 16000 nM
IC50 (NB6): > 16000 nM
IC50 (COLO-320-HSR): > 16000 nM
IC50 (MN-60): > 16000 nM
IC50 (EC-GI-10): > 16000 nM
IC50 (NB5): > 16000 nM
IC50 (RPMI-8866): > 16000 nM
IC50 (NB12): > 16000 nM
IC50 (TE-10): 14500 nM
IC50 (NCI-H209): > 16000 nM
